What was measured:
[1] = biological target: T1, human bradykinin 1 receptor (B1R) (Homo sapiens, UniProt P46663); experiment: FLIPR Ca2+ assay, B1R antagonism, human; format: cell-based; conditions: 10 μM test substance, CHO K1 cells with human B1R gene (hB1R cells), Lys-Des-Arg9-bradykinin at EC80, % inhibition compared with the maximum achievable inhibition; for inhibition at 10 µM: read-out: B1R antagonism, human [10 μM] % inhibition
T1 construct: expressed in transfected cells
T1 sequence (P46663 1-353): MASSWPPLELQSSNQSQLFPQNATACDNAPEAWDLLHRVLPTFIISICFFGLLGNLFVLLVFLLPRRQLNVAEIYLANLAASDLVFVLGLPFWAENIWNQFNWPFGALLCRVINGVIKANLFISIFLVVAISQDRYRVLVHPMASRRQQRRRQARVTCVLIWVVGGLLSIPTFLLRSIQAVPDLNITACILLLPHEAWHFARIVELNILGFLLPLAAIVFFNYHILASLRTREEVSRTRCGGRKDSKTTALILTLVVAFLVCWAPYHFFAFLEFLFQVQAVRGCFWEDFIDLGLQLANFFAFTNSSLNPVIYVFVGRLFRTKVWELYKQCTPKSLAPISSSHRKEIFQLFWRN
Description: The agonistic or antagonistic action of substances can be quantified on the bradykinin 1 receptor (B1R) of the human and rat species with ectopically expressing cell lines (CHO K1 cells) and with the aid of a Ca^2+-sensitive dyestuff (Fluo-4) in a fluorescent imaging plate reader (FLIPR). The figure in % activation is based on the Ca^2+ signal after addition of Lys-Des-Arg^9-bradykinin (0.5 nM) or Des-Arg^9-bradykinin (100 nM). Antagonists lead to a suppression of the Ca^2+ inflow after addition of the agonist. % inhibition compared with the maximum achievable inhibition is stated.
The agonistic or antagonistic action of substances can be determined on the bradykinin 1 receptor (B1R) of the human and rat species with the following assay. In accordance with this assay, the Ca^2+ inflow through the channel is quantified with the aid of a Ca^2+-sensitive dyestuff (type Fluo-4, Molecular Probes Europe BV, Leiden, Holland) in a fluorescent imaging plate reader (FLIPR, Molecular Devices, Sunnyvale, USA).
Chinese hamster ovary cells (CHO K1 cells) transfected stably with the human B1R gene (hB1R cells) or the B1R gene of the rat (rB1R cells) are used. For functional studies, these cells are plated out on black 96-well plates with a clear base (BD Biosciences, Heidelberg, Germany or Greiner, Frickenhausen, Germany) in a density of 20,000-35,000 cells/well. The cells are left overnight at 37° C. and 5% CO2 in culture medium (hB1R cells: Nutrient Mixture Ham's F12, Gibco Invitrogen GmbH, Karlsruhe, Germany or DMEM, Sigma-Aldrich, Taufkirchen, Germany; rB1R cells: D-MEM/F12, Gibco Invitrogen GmbH, Karlsruhe, Germany) with 10 vol. % FBS (foetal bovine serum, Gibco Invitrogen GmbH, Karlsruhe, Germany or PAN Biotech GmbH, Aidenbach, Germany).
On the following day, the cells are loaded for 60 min at 37° C. with 2.13 μM Fluo-4 (Molecular Probes Europe BV, Leiden, Holland) in HBSS buffer (Hank's buffered saline solution, Gibco Invitrogen GmbH, Karlsruhe, Germany) with 2.5 mM probenecid (Sigma-Aldrich, Taufkirchen, Germany) and 10 mM HEPES (Sigma-Aldrich, Taufkirchen, Germany). The plates are then washed 2× with HBSS buffer, and HBSS buffer which additionally contains 0.1% BSA (bovine serum albumin; Sigma-Aldrich, Taufkirchen, Germany), 5.6 mM glucose and 0.05% gelatine (Merck KGaA, Darmstadt, Germany) is added. After a further incubation of 20 minutes at room temperature, the plates are inserted into the FLIPR for the Ca^2+ measurement.
Alternatively, the plates are washed with buffer A (15 mM HEPES, 80 mM NaCl, 5 mM KCl, 1.2 mM CaCl2, 0.7 mM MgSO4, 2 g/l glucose, 2.5 mM probenecid), buffer A is added and the plates are loaded with 2.5 μM Fluo-4 and 0.025% Pluronic F127 (Sigma-Aldrich, Taufkirchen, Germany). Thereafter, the cells are washed 2× with buffer A and incubated for 30 minutes with buffer A, which additionally contains 0.05% BSA and 0.05% gelatine, at room temperature and thereafter inserted into the FLIPR for the Ca^2+ measurement.
The Ca^2+-dependent fluorescence is measured here before and after addition of substances (λex=488 nm, λem=540 nm). Quantification is by measurement of the highest fluorescence intensity (FC, fluorescence counts) over time.
The FLIPR protocol consists of 2 additions of substance. Test substances (10 μM) are first pipetted on to the cells and the Ca^2+ inflow is compared with the control (hB1R: Lys-Des-Arg^9-bradykinin >=50 nM; rB1R: Des-Arg^9-bradykinin 10 μM). This gives the figure in % activation based on the Ca^2+ signal after addition of Lys-Des-Arg^9-bradykinin (>=50 nM) or Des-Arg^9-bradykinin (10 μM).
After incubation for 10-20 minutes, Lys-Des-Arg^9-bradykinin (hB1R) or Des-Arg^9-bradykinin (rB1R) in the concentration of the EC80 is applied and the inflow of Ca^2+ is likewise determined. Antagonists lead to a suppression of the Ca^2+ inflow. % inhibition compared with the maximum achievable inhibition is calculated. […]

[2] = biological target: T2, bradykinin 1 receptor (B1R) of the rat (Rattus norvegicus, UniProt P97583); experiment: FLIPR Ca2+ assay, B1R antagonism, rat; format: cell-based; conditions: CHO K1 cells with rat B1R gene (rB1R cells), Des-Arg9-bradykinin at EC80, % inhibition compared with the maximum achievable inhibition; for inhibition at 10 µM: CHO-K1, 10 μM test substance, read-out: B1R antagonism, rat [10 μM] % inhibition
T2 construct: expressed in transfected cells
T2 sequence (P97583 1-337): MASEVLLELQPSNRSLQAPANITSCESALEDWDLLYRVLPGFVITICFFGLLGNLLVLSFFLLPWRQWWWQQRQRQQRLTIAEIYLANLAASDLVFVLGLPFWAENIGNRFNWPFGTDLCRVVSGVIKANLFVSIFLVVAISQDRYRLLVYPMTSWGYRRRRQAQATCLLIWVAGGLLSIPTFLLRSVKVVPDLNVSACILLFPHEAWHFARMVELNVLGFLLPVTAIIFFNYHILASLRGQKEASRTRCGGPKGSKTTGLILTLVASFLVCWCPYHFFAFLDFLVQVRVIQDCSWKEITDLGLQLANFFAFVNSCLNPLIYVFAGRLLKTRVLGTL
Outline: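 Antagonism is given as % of maximum achievable suppression of agonist-evoked Ca2+ influx, measured by Fluo-4 peak fluorescence in FLIPR. Stable hB1R or rB1R CHO K1 lines received 10 μM compound for 10-20 min before EC80 Lys-Des-Arg9-bradykinin (human) or Des-Arg9-bradykinin (rat).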

Compound	inhibition at 10 µM [1] [%]	inhibition at 10 µM [2] [%]	B1R antagonism, human [10 μM] % inhibition ([1]; 10 µM) [%]	B1R antagonism, rat [10 μM] % inhibition ([2]; 10 μM test substance) [%]
COc1cc(C)c(S(=O)(=O)N2c3ccccc3OCC2COCC(=O)N2CCC(OCCN3CCCC3)(c3cccnc3)CC2)c(C)c1 (centres unmarked) [Example 106, 2-[[4-[(4-methoxy-2,6-dimethyl-phenyl)sulfonyl]-3,4-dihydro-2H-[1,4]benzoxazin-3-yl]-methoxy]-1-[4-pyridin-3-yl-4-(2-pyrrolidin-1-yl-ethoxy)-piperidin-1-yl]-ethanone]	100	101		
Cc1cccc(Cl)c1S(=O)(=O)N1CCCC[C@H]1COCC(=O)N1CCC(OCCN2CCCC2)(c2cccnc2)CC1 [Example 48, (S)-2-((1-(2-chloro-6-methylphenylsulfonyl)piperidin-2-yl)methoxy)-1-(4-(pyridin-3-yl)-4-(2-(pyrrolidin-1-yl)ethoxy)piperidin-1-yl)ethanone]	99	105		
COc1cc(C)c(S(=O)(=O)N(CCOCC(=O)N2CCC(OCCN3CCCC3)(c3cccnc3)CC2)Cc2cccnc2)c(C)c1 [Example 5, 4-methoxy-2,6-dimethyl-N-(2-(2-oxo-2-(4-(pyridin-3-yl)-4-(2-(pyrrolidin-1-yl)ethoxy)piperidin-1-yl)ethoxy)ethyl)-N-(pyridin-3-ylmethyl)benzenesulfonamide]	100	102		
O=C(COCC1CCCCN1S(=O)(=O)c1ccccc1C(F)(F)F)N1CCC(OCCN2CCCC2)(c2cccnc2)CC1 (centres unmarked) [Example 116, 1-[4-pyridin-3-yl-4-(2-pyrrolidin-1-yl-ethoxy)-piperidin-1-yl]-2-[[1-[[2-(trifluoromethyl)-phenyl]sulfonyl]-piperidin-2-yl]-methoxy]-ethanone]	100	101		
COc1cc(C)c(S(=O)(=O)N2CCCCC2COCC(=O)N2CCC(OCCN3CCCC3)(c3cccnc3)CC2)c(C)c1 (centres unmarked) [Example 82, 2-[[1-[(4-methoxy-2,6-dimethyl-phenyl)sulfonyl]-piperidin-2-yl]-methoxy]-1-[4-pyridin-3-yl-4-(2-pyrrolidin-1-yl-ethoxy)-piperidin-1-yl]-ethanone]			100	102
COc1cc(C)c(S(=O)(=O)N(C)CCOCC(=O)N2CCC(OCCN3CCCC3)(c3ccncc3)CC2)c(C)c1C [Example 115, 4-methoxy-N,2,3,6-tetramethyl-N-[2-[2-oxo-2-[4-pyridin-4-yl-4-(2-pyrrolidin-1-yl-ethoxy)-piperidin-1-yl]-ethoxy]-ethyl]-benzenesulfonic acid amide]	100	102		
COc1cc(C)c(S(=O)(=O)N2CCCCC2COCC(=O)N2CCC(OCCN3CCCC3)(c3cccnc3)CC2)c(C)c1 (centres unmarked) [Example 20, 2-((1-(4-methoxy-2,6-dimethylphenylsulfonyl)piperidin-2-yl)methoxy)-1-(4-(pyridin-3-yl)-4-(2-(pyrrolidin-1-yl)ethoxy)piperidin-1-yl)ethanone]	104	102		
CN1CCN(CCOC2(c3cccnc3)CCN(C(=O)CC(NS(=O)(=O)c3ccc4ccccc4c3)c3ccccc3)CC2)CC1 (centres unmarked) [Example 32, N-(3-(4-(2-(4-methylpiperazin-1-yl)ethoxy)-4-(pyridin-3-yl)piperidin-1-yl)-3-oxo-1-phenylpropyl)naphthalene-2-sulfonamide]	63	98		
COc1cc(C)c(S(=O)(=O)N2CCCCC2COCC(=O)N2CCC(OCCN3CCCCC3)(c3cccnc3)CC2)c(C)c1 (centres unmarked) [Example 14, 2-((1-(4-methoxy-2,6-dimethylphenylsulfonyl)piperidin-2-yl)methoxy)-1-(4-(2-(piperidin-1-yl)ethoxy)-4-(pyridin-3-yl)piperidin-1-yl)ethanone]	103	102		
O=C(CCCC1CCCCN1S(=O)(=O)c1ccc2ccccc2c1)N1CCC(OCCN2CCCC2)(c2cccnc2)CC1 (centres unmarked) [Example 95, 4-[1-(naphthalen-2-ylsulfonyl)-piperidin-2-yl]-1-[4-pyridin-3-yl-4-(2-pyrrolidin-1-yl-ethoxy)-piperidin-1-yl]-butan-1-one]	95	101		
COc1cc(C)c(S(=O)(=O)N(C)CCOCC(=O)N2CCC(OCCN3CCCC3)(c3cccc(F)c3)CC2)c(C)c1 [Example 81, N-[2-[2-[4-(3-fluorophenyl)-4-(2-pyrrolidin-1-yl-ethoxy)-piperidin-1-yl]-2-oxo-ethoxy]-ethyl]-4-methoxy-N,2,6-trimethyl-benzenesulfonic acid amide]	100	97		
COc1cc(C)c(S(=O)(=O)N2c3ccccc3OCC2COCC(=O)N2CCC(OCCN3CCCC3)(c3ccncc3)CC2)c(C)c1 (centres unmarked) [Example 108, 2-[[4-[(4-methoxy-2,6-dimethyl-phenyl)sulfonyl]-3,4-dihydro-2H-[1,4]benzoxazin-3-yl]-methoxy]-1-[4-pyridin-4-yl-4-(2-pyrrolidin-1-yl-ethoxy)-piperidin-1-yl]-ethanone]	100	103		
O=C(COC[C@@H]1CCCCN1S(=O)(=O)c1ccccc1C(F)(F)F)N1CCC(OCCN2CCCC2)(c2cccnc2)CC1 [Example 47, (S)-1-(4-(pyridin-3-yl)-4-(2-(pyrrolidin-1-yl)ethoxy)piperidin-1-yl)-2-((1-(2-(trifluoromethyl)phenylsulfonyl)piperidin-2-yl)methoxy)ethanone]	100	101		

Reference: patent publication US8318769B2, “Substituted sulfonamide compounds” (Gruenethal GmbH, priority 2008, dated 2012)
